In PubChem BioAssay AID1896 (NMMLSC, 2009) one finds EC50 and Ki data, which are given here for 69 compounds.

This test deals with Mitogen-activated protein kinase kinase kinase 3 (Homo sapiens) (UniProt Q99759). Kind of test: MEKK3 PB1-MEK5 interaction blockers – biochemical, bead multiplex flow cytometry, wildtype, dose response (AID 1896). Conditions: bead-based multiplex flow cytometry, MEK5-MEKK3 PB1 binding; for pKi: measured here: Ki from EC50. In general terms: In flow cytometry, cells or beads pass a laser one at a time.
Chain of Mitogen-activated protein kinase kinase kinase 3 (Homo sapiens) (Q99759 whole entry, looked up): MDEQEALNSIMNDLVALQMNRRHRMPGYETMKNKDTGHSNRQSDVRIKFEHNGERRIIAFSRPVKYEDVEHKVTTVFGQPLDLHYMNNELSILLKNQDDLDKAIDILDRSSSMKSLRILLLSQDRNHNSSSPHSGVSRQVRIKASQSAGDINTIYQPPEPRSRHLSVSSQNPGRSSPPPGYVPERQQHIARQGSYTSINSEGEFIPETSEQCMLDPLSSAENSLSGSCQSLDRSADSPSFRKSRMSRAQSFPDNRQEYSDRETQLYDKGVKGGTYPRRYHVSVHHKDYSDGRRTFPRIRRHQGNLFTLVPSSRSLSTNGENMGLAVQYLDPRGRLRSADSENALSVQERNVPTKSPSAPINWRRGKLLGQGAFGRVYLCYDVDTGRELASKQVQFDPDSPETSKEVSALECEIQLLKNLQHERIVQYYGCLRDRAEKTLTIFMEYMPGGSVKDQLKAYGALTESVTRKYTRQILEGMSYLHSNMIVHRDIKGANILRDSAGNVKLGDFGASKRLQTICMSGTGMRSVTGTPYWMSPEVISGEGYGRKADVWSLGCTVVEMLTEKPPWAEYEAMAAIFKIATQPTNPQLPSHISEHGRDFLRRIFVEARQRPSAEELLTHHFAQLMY

pEC50, pKi: −log10 of the molar value. The source made the active and inactive calls. No rule for the calls is given here. Some results are limits rather than exact numbers.

By EC50 is commonly meant the concentration that produces a half-maximal response. As to `CN1C(=CC=C2C=C(I)C(=O)C(I)=C2)C(C)(C)c2ccccc21`, the EC50 is > 30 µM (inactive).

As to `CCCSc1ncnc2sc(C)c(C)c12`, the EC50 was > 30 µM (inactive). Same read-out and setting: then `O=C1c2ccccc2-c2onc3ccc(NCCCn4ccnc4)c1c23`, with > 30 µM (inactive). As a reminder, the pEC50 is the negative decadic logarithm of the EC50, by convention in mol/L. Usually pKi stands for the negative decadic logarithm of the Ki, by convention in mol/L. Read a low pKi as a large Ki. For the compound `CCN1C(c2ccccc2)=C(c2ccccc2)S/C1=C/C=C1\SC(=S)N(C)C1=O`, the pEC50 is 5.47 and the negative-log Ki (pKi) is 5.54. Consider `CN(C)CCCN(C(=O)c1ccc2c(c1)CCCC2)c1nc2ccc(Cl)cc2s1`, for which the EC50 was > 30 µM (inactive). For `CCOc1cccc2sc(N(CCCN(C)C)C(=O)c3ccc(S(=O)(=O)N4CCc5ccccc5C4)cc3)nc12`, the EC50 is > 30 µM (inactive).

Take `CCCCCCCCCCCCCCCC[n+]1ccc(/C=N/O)cc1`: the EC50 is > 30 µM (inactive). Still for that read-out and setting: next, `COc1ccc2nc(C)cc(N/N=C/c3cccc(OC)c3O)c2c1`: > 30 µM (inactive); `COCCNC(=O)CN(c1cc(Cl)ccc1OC)S(=O)(=O)c1ccc(C)c([N+](=O)[O-])c1`: > 30 µM (inactive). The same measure, in the same setting: next, `OCCCCNCc1ccc(OCc2ccc(Cl)cc2Cl)cc1`: > 30 µM (inactive); `Cc1sc(NC(=O)c2ccccc2)c(C(c2ccccn2)N2CCN(CCO)CC2)c1C` (centres undefined): > 30 µM (inactive).

For `Cc1cc2ccccc2n1CCNC(=O)c1ccc(Br)o1`, the negative-log EC50 (pEC50) is 4.93 and the negative-log Ki (pKi) was 4.99. Turning to `CC[n+]1c(/C=C/C=C/N(C(C)=O)c2ccccc2)sc2ccccc21`, the EC50 is > 30 µM (inactive). Same read-out and setting: then `CCCCCCCCCCOC(=O)Cn1c(COc2ccccc2OC)[n+](C)c2ccccc21`, with > 30 µM (inactive); and `CCOC(=O)C1=C(c2ccccc2)NC(N)=NC1c1ccc(OCc2ccc(C(=O)OC)cc2)cc1` (centres undefined), with > 30 µM (inactive).

On to `Cc1ccc(-c2csc(NC(=O)C[n+]3cc(-c4ccc(C)cc4)n4c3CCC4)n2)cc1`, for which the EC50 was > 30 µM (inactive). Same read-out and setting: then `CCCCCCCCCCOC(=O)Cn1c(COc2ccccc2C)[n+](C)c2ccccc21`, with > 30 µM (inactive); and `CCN(CC)CCOC(=O)c1ccc(N/C=C(/C#N)c2nc(-c3ccc(OC)cc3)cs2)cc1`, with > 30 µM (inactive). On the same count and under the same terms, next, `COc1cc(CNCCc2c[nH]c3ccccc23)ccc1OCc1ccccc1F`: > 30 µM (inactive); `CCCCCCOc1ccc(/C(C)=N/NC2=NCCN2)cc1[N+](=O)[O-]`: > 30 µM (inactive); `NC(N)=N/N=C/c1ccc(OCc2ccc(Cl)cc2Cl)cc1`: > 30 µM (inactive). For `CCN(CC)CCOC(=O)c1ccc(N/C=C(/C#N)c2nc(-c3cc4ccccc4oc3=O)cs2)cc1`, the pEC50 is 5.42 and the negative logarithm of the Ki (pKi) is 5.49.

`COc1ccc(CSc2n[nH]c(C)n2)cc1[N+](=O)[O-]`: the EC50 was > 30 µM (inactive). As for `C#CCOCCOCCOCCNc1nc(N2CCN(C(=O)[C@H](Cc3cc4ccccc4[nH]3)n3cc([C@@H](N)C(C)CC)nn3)CC2)nc(N2CCN(C(=O)[C@H](Cc3cc4ccccc4[nH]3)n3cc([C@@H](N)Cc4ccc(O)cc4)nn3)CC2)n1` (some centres undefined), the EC50 was > 30 µM (inactive). On the same count and under the same terms, then `C#CCOCCOCCOCCNc1nc(N2CCN(C(=O)[C@H]([C@@H](C)CC)n3cc([C@@H](N)CC(C)C)nn3)CC2)nc(N2CCN(C(=O)[C@H](Cc3cc4ccccc4[nH]3)n3cc([C@@H](N)Cc4ccc(O)cc4)nn3)CC2)n1`, with > 30 µM (inactive). The same measure, in the same setting: next, `CCN1CCN(CCNC(=O)c2ccc(/C=C3/Sc4ccccc4N(Cc4cccc(Cl)c4)C3=O)cc2)CC1`: > 30 µM (inactive); `CC(=O)c1c(C)[nH]c(C(=O)NC2=NCCS2)c1C`: > 30 µM (inactive). The same measure, in the same setting: next, `CS(=O)(=O)N1N=C(c2ccccc2)CC1c1ccc2c(c1)OCO2` (centres undefined): > 30 µM (inactive); `CCCN(CCC)CCNC(=O)c1cc2c(-c3ccc(Cl)cc3)nn(C)c2s1`: > 30 µM (inactive). As for `C#CCOCCOCCOCCNc1nc(N2CCN(C(=O)[C@H](CCC(=O)O)n3cc(C(N)CO)nn3)CC2)nc(N2CCN(C(=O)[C@H](Cc3cc4ccccc4[nH]3)n3cc(C(N)[C@H](C)CC)nn3)CC2)n1` (some centres undefined), the EC50 is > 30 µM (inactive).

Consider `C/C(=N\NC(=O)c1cc(O)cc(O)c1)c1ccc(NC(=O)Cc2ccccc2)cc1`, for which the EC50 was > 30 µM (inactive).

Turning to `CN(C)c1ccc(/C=C/C=C2/SC(=S)N(c3ccccc3)C2=O)cc1`, the pEC50 was 5.92 and the pKi was 5.99. Turning to `C#CCOCCOCCOCCNc1nc(N2CCN(C(=O)[C@H](Cc3ccc(O)cc3)n3cc([C@@H](N)C(C)CC)nn3)CC2)nc(N2CCN(C(=O)[C@H](Cc3cc4ccccc4[nH]3)n3cc([C@@H](N)Cc4ccc(O)cc4)nn3)CC2)n1` (some centres undefined), the EC50 is > 30 µM (inactive). Still for that read-out and setting: next, `CCCCCc1cc(=O)oc2c(C(CCN3CCCC3)c3ccc(N(C)C)cc3)c(OC)cc(OC)c12` (centres undefined): > 30 µM (inactive).

Regarding `C#CCOCCOCCOCCNc1nc(N2CCN(C(=O)[C@H]([C@@H](C)CC)n3cc([C@@H](N)Cc4ccc(O)cc4)nn3)CC2)nc(N2CCN(C(=O)[C@H](CCCCN)n3cc([C@@H](N)CC(C)C)nn3)CC2)n1`, the EC50 was > 30 µM (inactive). On the same count and under the same terms, next, `COc1cc(/C=N/NC(=O)c2cc3ccccc3cc2O)ccc1OCCN1CCCCC1`: > 30 µM (inactive); `CCN1CCN(Cc2ccc(NC(=O)c3cc(NC(=O)c4cnn(-c5ccccc5)c4N)cc(OC)c3)cc2C(F)(F)F)CC1`: > 30 µM (inactive).

As for `Cc1ccc(CN2CCSc3ccc(C(=O)NC4CCN(Cc5ccccc5)CC4)cc32)cc1`, the EC50 was > 30 µM (inactive). On the same count and under the same terms, next, `CCCCCCCCCC[N+](C)(C)CC/C=C1/c2ccccc2Sc2ccc(Cl)cc21`: > 30 µM (inactive); `CCN(CC)CCOc1ccc2c(c1)C(=NNC(=O)c1ccccn1)c1cc(OCCN(CC)CC)ccc1-2`: > 30 µM (inactive); `CCCCCc1cc(=O)oc2c(C(CCN3CCCCC3)c3ccc(OC)cc3)c(OC)cc(OC)c12` (centres undefined): > 30 µM (inactive). On the same count and under the same terms, next, `CCOC(=O)C1=C(c2ccccc2)NC(N)=NC1c1ccc(OCc2ccc(Cl)cc2)c(OC)c1` (centres undefined): > 30 µM (inactive).

As to `CN(c1ccccc1)c1ccc(/C=c2\s/c(=C(/C#N)C(=O)C(C)(C)C)n(Cc3ccco3)c2=O)cc1`, the pEC50 was 6.47 and the pKi is 6.54. For `COc1ccc2nc(C)cc(N/N=C/c3ccc(F)cc3)c2c1`, in that order: 5.06 and 5.13. On to `CCc1ccc(Nc2n[n+](-c3ccccc3)c(-c3cc(OC)c(OC)cc3Br)s2)cc1`, for which the EC50 was > 30 µM (inactive). For the compound `COc1cccc(OC)c1-c1nn2c(-c3cc(-c4ccccc4)n[nH]3)nnc2s1`, the pEC50 was 5.27 and the pKi is 5.34. For `Nc1cc2nc[nH]c2cc1N` the same measures were 5.10 and 5.17. For `CCCCn1c(O)c(/C=C/C=C/C=Nc2ccccc2)sc1=S` the same measures were 5.89 and 5.96.

Turning to `CCN(CC)CCOC(=O)c1ccc(N/C=C(/C#N)c2nc(-c3ccc(OC)c(OC)c3)cs2)cc1`, the pEC50 was 5.60 and the pKi was 5.67. Take `CCN1CCN(CCNC(=O)c2ccc(/C=C3/Sc4ccccc4N(Cc4cccc(C)c4)C3=O)cc2)CC1`: the EC50 was > 30 µM (inactive). Turning to `C#CCOCCOCCOCCNc1nc(N2CCN(C(=O)C(Cc3ccc(O)cc3)n3cc(C(N)CC(C)C)nn3)CC2)nc(N2CCN(C(=O)C(Cc3cc4ccccc4[nH]3)n3cc(C(N)C(C)CC)nn3)CC2)n1` (centres undefined), the EC50 is > 30 µM (inactive). For `Cc1cc2ccccc2n1CCNC(=O)c1ccccc1`, the pEC50 is 5.25 and the negative logarithm of the Ki (pKi) was 5.32. For `Nc1ccc(N)c(C(=O)O)c1` the same measures were 5.51 and 5.58. Take `CCCOc1ccc2c(c1)C(=NN=C(N)N)c1cc(OCCC)ccc1-2`: the EC50 is > 30 µM (inactive). Still for that read-out and setting: next, `COc1ccc(CNC[C@@H](CCCCN(C)Cc2ccc(OC)cc2)N2C[C@H](c3ccccc3)N(CCc3ccc(Cl)c(Cl)c3)C(=O)C2=O)cc1`: > 30 µM (inactive); `COc1ccc(C2NCCc3c2[nH]c2ccccc32)cc1CN1CCc2cc(OC)c(OC)cc2C1C` (centres undefined): > 30 µM (inactive). Turning to `CCC(/C=C1\Sc2ccc(OC)cc2N1CCO)=C\c1sc2ccc(OC)cc2[n+]1CCO`, the negative logarithm of the EC50 (pEC50) is 5.55 and the pKi is 5.62. As for `CCN1CCN(Cc2ccc(NC(=O)c3cc(NC(=O)c4cncc(-c5cccs5)c4)cc(OC)c3)cc2C(F)(F)F)CC1`, the EC50 is > 30 µM (inactive). The same measure, in the same setting: then `C#CCOCCOCCOCCNc1nc(N2CCN(C(=O)[C@H]([C@@H](C)CC)n3cc([C@@H](N)CC(C)C)nn3)CC2)nc(N2CCN(C(=O)[C@H](Cc3cc4ccccc4[nH]3)n3cc([C@@H](N)CC(C)C)nn3)CC2)n1`, with > 30 µM (inactive); and `Cc1ccc(-c2c[n+](CC(=O)Nc3nc(-c4ccc(F)cc4)cs3)c3n2CCC3)cc1`, with > 30 µM (inactive). Regarding `CCNc1ccc2noc3c2c1C(=O)c1ccccc1-3`, the negative logarithm of the EC50 (pEC50) was 5.34 and the pKi was 5.41. For the compound `Cc1ccccc1OCC(O)CNC1CCC(NCC(O)COc2ccccc2C)CC1` (centres undefined), the EC50 is > 30 µM (inactive). On the same count and under the same terms, next, `COC(=O)c1c(C)oc(C)c1S(=O)(=O)N(Cc1ccccc1)C(C)C`: > 30 µM (inactive); `CC[C@@H](C)[C@H](CNC)NC[C@@H](Cc1cccc2ccccc12)NCCc1cccc(C(F)(F)F)c1`: > 30 µM (inactive); `O=C1c2ccccc2-c2onc3ccc(NCc4ccco4)c1c23`: > 30 µM (inactive). On the same count and under the same terms, then `O=[N+]([O-])c1ccc(/C=C/C2=NN(c3ccccc3)C(c3ccco3)C2)o1` (centres undefined), with > 30 µM (inactive). In the case of `CCN1/C(=C/c2ccc3cc(C)cc(C)c3[n+]2CC)Sc2cc(C)ccc21`, the negative-log EC50 (pEC50) was 4.98 and the pKi was 5.04. For the compound `Cc1cc2ccccc2n1CCNC(=O)c1cccs1`, the EC50 is > 30 µM (inactive).

For `COCc1c(C#N)c(NCCc2ccccc2)nc(C)c1[N+](=O)[O-]`, the EC50 is > 30 µM (inactive).
